According to US7244446B2, “Method for providing long-lasting pain diminishment through topical or intranasal administration of civamide” (Winston Laboratories, Inc., priority 2003, dated 2007):

Key:
[1] = tested on: patients with episodic cluster headaches; experiment: Episodic cluster headache patients, 0.025% civamide intranasally once daily for seven days, three-week follow-up; format: in vivo, human; settings: 0.1 ml of 0.025% civamide in aqueous vehicle, each nostril, 7 days
Description: Patients with episodic cluster headaches were treated with 0.1 ml of 0.025% civamide in an aqueous vehicle given once daily intranasally to each nostril for seven days. Following completion of the seven-day treatment period, cluster headache patients were followed for another three weeks during which they received no treatment.

[2] = tested on: patients with episodic cluster headache; experiment: Episodic cluster headache patients, 0.01% civamide metered nasal spray twice daily for seven days, six-week follow-up; format: in vivo, human; settings: 0.01% civamide in aqueous vehicle, 7 days
Description: Patients with episodic cluster headache were treated with 0.01% civamide in an aqueous vehicle delivered by metered nasal spray twice daily for seven days. The patients were then followed for an additional six weeks after treatment.

[3] = tested on: patients with long-standing painful osteoarthritis of the knees; experiment: Painful osteoarthritis of the knees, 0.075% civamide cream three times daily for two to four weeks, then discontinued; format: in vivo, human; settings: 0.075% civamide in cream vehicle, topical
Description: Patients with long-standing painful osteoarthritis of the knees applied 0.075% civamide in a cream vehicle three times daily for two to four weeks, and then the medication was discontinued. Relief of painful osteoarthritis continued for as long as 2–4 months after discontinuing the medication.

[4] = tested on: painful, inflammatory or allergic disorders; settings: compositions containing civamide; from U.S. Pat. No. 5,063,060; cited from earlier work

Q: What does the source list for `COc1cc(CNC(=O)CCCC/C=C\C(C)C)ccc1O` [civamide, cis-8-methyl-N-vanillyl-6-nonenamide]?
A: Headache frequency three weeks after treatment versus during or immediately after treatment ([1]; three weeks after completion): lower three weeks following completion of treatment than during or immediately after the treatment period; Frequency of cluster headaches after completion of treatment ([1]; three weeks follow-up without treatment): decreased continuously over the three weeks following completion of the short course (7 days) of treatment; Frequency of cluster headache over follow-up ([2]; six weeks follow-up): declined continuously over the six-week period; Reduction in headaches during week six ([2]; week six after treatment): ~65%; Duration of relief of painful osteoarthritis after discontinuing the medication [3]: 2–4 months; Efficacy compared with compositions containing capsaicin [4]: comparable in efficacy to compositions containing capsaicin; Local adverse effects compared with capsaicin [4]: significantly less local adverse effects normally associated with capsaicin
